From patent publication US10179789B2, “Methylenedioxybenzo [I] phenanthridine derivatives used to treat cancer” (Rutgers, The State University of New Jersey, priority 2009, dated 2019)
Values belong to the compound of their own block, whether it stands above or below them.

Experiments:
[1] = biological target: T1, human topoisomerase I (Homo sapiens, UniProt P11387); test: Test A. Topoisomerase I-mediated DNA cleavage assay; assay type: biochemical; settings: Relative Effective Concentration; relative to camptothecin arbitrarily assumed as 0.2; same 10% cleavage on plasmid DNA
T1 construct: unnamed fusion partner (recombinant fusion protein, T7 expression system); made in house; host or cells: Escherichia coli
T1 sequence (P11387 1-765): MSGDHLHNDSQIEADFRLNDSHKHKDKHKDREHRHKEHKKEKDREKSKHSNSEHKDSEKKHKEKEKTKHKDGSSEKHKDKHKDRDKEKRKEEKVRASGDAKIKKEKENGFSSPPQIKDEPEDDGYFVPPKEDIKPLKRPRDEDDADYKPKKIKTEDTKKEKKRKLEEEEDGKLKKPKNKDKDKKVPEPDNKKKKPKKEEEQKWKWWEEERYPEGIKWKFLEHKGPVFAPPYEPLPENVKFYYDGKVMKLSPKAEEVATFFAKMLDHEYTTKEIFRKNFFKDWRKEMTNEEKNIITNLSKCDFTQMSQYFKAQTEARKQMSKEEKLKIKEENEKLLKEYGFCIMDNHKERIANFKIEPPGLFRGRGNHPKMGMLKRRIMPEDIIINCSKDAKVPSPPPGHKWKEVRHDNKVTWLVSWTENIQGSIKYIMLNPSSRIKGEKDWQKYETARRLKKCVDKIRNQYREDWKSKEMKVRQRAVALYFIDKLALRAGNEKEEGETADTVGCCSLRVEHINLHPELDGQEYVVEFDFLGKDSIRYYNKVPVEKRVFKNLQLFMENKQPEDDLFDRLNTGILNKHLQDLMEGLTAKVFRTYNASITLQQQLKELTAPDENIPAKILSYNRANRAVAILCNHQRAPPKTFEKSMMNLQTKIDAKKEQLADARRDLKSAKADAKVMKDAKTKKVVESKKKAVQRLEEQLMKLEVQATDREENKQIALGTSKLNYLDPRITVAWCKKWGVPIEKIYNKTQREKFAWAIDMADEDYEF
Excerpt: Test A. Topoisomerase I—Mediated DNA Cleavage Assay Human topoisomerase I was expressed in Escherichia coli and isolated as a recombinant fusion protein using a T7 expression system as described previously (31). Plasmid YepG was also purified by the alkali lysis method followed by phenol deproteination and CsCl/ethidium isopycnic centrifugation method as described (32). The 3′ end labeling of the plasmid was accomplished by digestion with a restriction enzyme followed by end filling with Klenow polymerase as previously described (33). The cleavage assays were performed as previously reported (34,35). The drug and the DNA in presence of topoisomerase I was incubated for 30 min at room temperature. The reactions were terminated by the addition of 5 μL of 5% SDS and 1 mg/mL […] with an additional 1 h of incubation at 37° C. […] After development of the gels, typically 24-h exposure was used to obtain autoradiograms outlining the extent of DNA fragmentation. Topoisomerase I-mediated DNA cleavage values are reported as Relative Effective Concentration (REC). […] Results for the assay for representative compounds of the invention of formula I along with comparison compounds are shown in Table 1.

[2] = test system: RPMI 8402 human lymphoblast cells; test: Test B. MTT cytotoxicity assay, RPMI8402; assay type: cell-based; settings: Homo sapiens, RPMI 8402, 96 h, read-out: Cytotoxicity IC50 RPMI8402
Procedure: (§1) Test B. Cytotoxic Assays (Cancer Cell Lines and Efflux Transporter Cell Lines)
(§2) The cytotoxicity was determined using the MTT-microtiter plate tetrazolinium cytotoxicity assay (MTA). The human lymphoblast RPMI 8402 and its camptothecin-resistant variant cell line, CPT-K5 was provided by Dr. Toshiwo Andoh (Aichi Cancer Center Research Institute, Nagoya, Japan). (36) The P388 mouse leukemia cell line and its CPT-resistant TOP1-deficient variant P388/CPT45 (37) were obtained from Michael R. Mattern and Randal K. Johnson (GlaxoSmithKline, King of Prussia, Pa.). The KB3-1 cell line and its multidrug-resistant variant KBV-1 (38) were obtained from K. V. Chin (The Cancer Institute of New Jersey, New Brunswick, N.J.). The KBH5.0 cell line as noted previously (21) was derived from KB3-1 by stepwise selection against Hoechst 33342. The cytotoxicity assay was performed using 96-well microtiter plates. Cells were grown in suspension at 37° C. in 5% CO2 and maintained by regular passage in RPMI medium supplemented with 10% heat inactivated fetal bovine serum, L-glutamine (2 mM), penicillin (100 U/mL), and Streptomycin (0.1 mg/mL). For determination of IC50, cells were exposed continuously for FOUR days to varying concentrations of drug, and MTT assays were performed at the end of the fourth day. […] All assays were performed at least twice in six replicate wells.

[3] = test system: CPT-K5 (camptothecin-resistant variant of RPMI 8402); test: Test B. MTT cytotoxicity assay, CPT-K5; assay type: cell-based, human; settings: Homo sapiens, CPT-K5, 96 h, read-out: Cytotoxicity IC50 CPT-K5
Procedure: as §1, §2

[4] = test system: P388 mouse leukemia cell line; test: Test B. MTT cytotoxicity assay, P388; assay type: cell-based; settings: Mus musculus, P388, 96 h, read-out: Cytotoxicity IC50 P388
Procedure: as §1, §2

[5] = test system: P388/CPT45 (CPT-resistant TOP1-deficient variant of P388); test: Test B. MTT cytotoxicity assay, P388/CPT45; assay type: cell-based, mouse; settings: Mus musculus, P388CPT45, 96 h, read-out: Cytotoxicity IC50 P388/CPT45
Procedure: as §1, §2

[6] = Cytotoxicity on KB3-1 (parent cell line); assay type: cell-based; settings: human
Procedure: as §2
(§3) The cytotoxicity of the representative compounds of the invention were also tested on cell line KB3-1 (parent cell line), KBV-1 (a variant that overexpresses efflux transporter MDR1) and KBH5.0 (a variant that overexpresses BCRP). Differences in the relative cytotoxicity between the parent and variant cell lines may be indicative of a compound that is a substrate for an efflux transporter. […] Accordingly, compounds of the invention of formula I may be useful to treat tumors that are resistant to other anticancer agents, especially anticancer agents that are susceptible to efflux by BCRP (e.g. anthracyclines, mitoxantrone, topotecan, irinotecan, bisanthrone, doxorubicin, daunorubicin, and epirubin.

[7] = test system: MDR1; test: Cytotoxicity on KBV-1 (overexpresses MDR1); assay type: cell-based; settings: human
Procedure: as §2, §3

[8] = test system: BCRP; test: Cytotoxicity on KBH5.0 (overexpresses BCRP); assay type: cell-based; settings: human
Procedure: as §2, §3

SMILES: COc1cc2cc(C(=O)NCCCC(C)(C)N(C)C)c3c4cc5c(cc4ncc3c2cc1OC)OCO5 [Compound 45, 2,3-Dimethoxy-8,9-methylenedioxybenzo[i]phenanthridine-11-carboxylic acid 4-(dimethylamino)-4-methylpentylamide]
TOP1 Mediated DNA Cleavage (REC Value) [1]: 2.5
IC50 [2]: 280 nM
IC50 [3]: 5500 nM
IC50 [4]: 280 nM
IC50 [5]: 3250 nM
IC50 at 4 days [6]: 210 nM
IC50 at 4 days [7]: > 10000 nM
IC50 at 4 days [8]: 850 nM
melting point: 239 to 242 °C

SMILES: COc1cc2c(C(=O)NCC(C)(C)N)cc3c4cc5c(cc4ncc3c2cc1OC)OCO5 [Compound 33, N-(2-Amino-2-methylpropyl)-2,3-dimethoxy-8,9-methylenedioxybenzo[i]phenanthridine-12-carboxamide]
TOP1 Mediated DNA Cleavage (REC Value) [1]: 1.1
IC50 [2]: 10 nM
IC50 [3]: 2200 nM
IC50 [4]: 20 nM
IC50 [5]: 760 nM
IC50 at 4 days [6]: 4 nM
IC50 at 4 days [7]: 480 nM
IC50 at 4 days [8]: 190 nM
melting point: 269 to 271 °C (dec.)

SMILES: COc1cc2c(C(=O)NCCN(C)C)cc3c4cc5c(cc4ncc3c2cc1OC)OCO5 [Compound 206, reference compound]
TOP1 Mediated DNA Cleavage (REC Value) [1]: 0.1
IC50 [2]: 3 nM
IC50 [3]: 1000 nM
IC50 [4]: 3 nM
IC50 [5]: 320 nM
IC50 at 4 days [6]: 5 nM
IC50 at 4 days [7]: 220 nM
IC50 at 4 days [8]: 60 nM

Further lines, with some results ahead:

TOP1 Mediated DNA Cleavage (REC Value) [1]: 1.0
SMILES: CC[C@@]1(O)C(=O)OCc2c1cc1n(c2=O)Cc2cc3c(CN(C)C)c(O)ccc3nc2-1 [Topotecan, topotecan, reference compound]
IC50 [2]: 21 nM
IC50 [3]: > 10000 nM
IC50 [4]: 45 nM
IC50 [5]: > 10000 nM
IC50 at 4 days [6]: 40 nM
IC50 at 4 days [7]: 440 nM
IC50 at 4 days [8]: 440 nM

TOP1 Mediated DNA Cleavage (REC Value) [1]: 0.2
SMILES: COc1cc2cc(C(=O)NCCN(C)C)c3c4cc5c(cc4ncc3c2cc1OC)OCO5 [Compound 216, reference compound]
IC50 [2]: 35 nM
IC50 [3]: 630 nM
IC50 [4]: 15 nM
IC50 [5]: 260 nM
IC50 at 4 days [6]: 27 nM
IC50 at 4 days [7]: 1400 nM
IC50 at 4 days [8]: 200 nM
